# According to patent EP2276483B1, “SOLID FORMS COMPRISING (+)-2-[1-(3-ETHOXY-4-METHOXYPHENYL)-2-METHYLSULFONYLETHYL]-4-ACETYLAMINOISOINDOLINE-1,3-DIONE, COMPOSITIONS THEREOF, AND USES THEREOF” (CELGENE CORPORATION, priority 2008, dated 2009):
# Tests used:
# human PDE2 = human PDE2 (Homo sapiens, UniProt O00408); experiment: PDE2 enzyme assay; type: biochemical; details: for PDE Specificity Ratio PDE4/PDE2: from above data
# PDE4 (from U937 cells) = experiment: PDE4 (U937 cell-derived) enzyme assay; type: biochemical, human; details: 1 µM cAMP
# Description: PDE4 enzyme was purified from U937 human monocytic cells by gel filtration chromatography as previously described (Muller et al., 1998, Bioorg. & Med. Chem. Lett. 8:2669-2674). Phosphodiesterase reactions were carried out in 50 mM Tris HCl pH 7.5, 5 mM MgCl2, 1 µM cAMP, 10 nM [^3H]-cAMP for 30 min at 30°C, terminated by boiling, treated with 1 mg/ml snake venom, and separated using AG-1XS ion exchange resin (BioRad) as described (Muller et al., 1998, Bioorg. & Med. Chem. Lett. 8:2669-2674). Reactions consumed less than 15% of available substrate. Table 1. PDE Specificity
# [1] = Aqueous equilibrium solubility in pH 7.4 buffer; type: physicochemical; details: thermodynamic from solid; pH 7.4 aqueous buffer, room temperature; read-out: Measured solubility
# Description: Equilibrium solubilities were measured in pH 7.4 aqueous buffer. The pH 7.4 buffer was prepared by adjusting the pH of a 0.07 M NaH2PO4 solution to 7.4 with 10 N NaOH. The ionic strength of the solution was 0.15. At least 1 mg of powder was combined with 1 ml of buffer to make >1 mg/ml mixture. These samples were shaken for >2 hours and left to stand overnight at room temperature. The samples were then filtered through a 0.45-µm Nylon syringe filter that was first saturated with the sample. The filtrate was sampled twice, consecutively. The filtrate was assayed by HPLC against standards prepared in 50% methanol.
# cAMP [2] = experiment: PGE2-induced cAMP elevation in human PBMC; type: cell-based; details: PGE2 (10µM)
# Description: (§1) Prostaglandin E2 (PGE2) binds to prostanoid receptors on monocytes, T cells and other leukocytes and consequently elevates intracellular cAMP levels, resulting in inhibition of cellular responses. The combination of PGE2 and a PDE4 inhibitor synergistically elevates cAMP levels in these cell types, and the elevation of cAMP in PBMC caused by PDE4 inhibitors in the presence of PGE2 is proportional to the inhibitory activity of that PDE4 inhibitor. Intracellular cAMP was measured in human PBMC as follows. PBMC were isolated as described above and plated in 96-well plates at 1 x 10^6 cells per well in RPMI-1640. The cells were pre-treated with compounds at 100, 10, 1, 0.1, 0.01, and 0 µM in a final concentration of 2% DMSO in duplicate at 37°C in a humidified incubator at 5% CO2 for one hour. The cells were then stimulated with PGE2 (10µM) (Sigma) for 1h. The cells were lysed with HCl, 0.1 N final concentration to inhibit phosphodiesterase activity and the plates were frozen at -20°C. The cAMP produced was measured using cAMP (low pH) Immunoassay kit (R&D Systems).
# bovine PDE1 = experiment: PDE1 enzyme assay; type: biochemical; details: for PDE Specificity Ratio PDE4/PDE1: from above data
# [3] = target: T1, PDE5 from human platelets (Homo sapiens, UniProt O76074); experiment: PDE5 enzyme assay; type: biochemical; details: for PDE Specificity Ratio PDE4/PDE5: from above data
# T1 construct: PDE5 from human platelets; from tissue; host or cells: human platelets
# LTB4 = experiment: fMLF-induced LTB4 production in neutrophils; type: cell-based; details: Neutrophil; human neutrophils; 1 µM fMLF
# Description: N-formyl-methionine-leucine-phenylalanine (fMLF) is a bacterially derived peptide that activates neutrophils to rapidly degranulate, migrate, adhere to endothelial cells, and release leukotriene LTB4, a product of arachidonic acid metabolism and itself a neutrophil chemoattractant. Compounds were tested for the ability to block fMLF-induced neutrophil LTB4 production as previously described (Hatzelmann and Schudt, 2001, J. Pharm. Exp. Ther., 297:267-279), with the following modifications. Neutrophils were isolated as described above and resuspended in phosphate-buffered saline without calcium or magnesium (BioWhittaker) containing 10 mM HEPES pH 7.2 and plated in 96-well tissue culture plates at a concentration of 1.7 x 10^6 cells/well. Cells were treated with 50 µM thimerosal (Sigma)/1 mM CaCl2/1 mM MgCl2 for 15 minutes at 37°C 5% CO2, then treated with compounds at 1000, 200, 40, 8, 1.6, 0.32, 0.064, and 0 nM in a final DMSO concentration of 0.01 % in duplicate for 10 minutes. Neutrophils were stimulated with 1 µM fMLF for 30 minutes, then lysed by the addition of methanol (20% final concentration) and frozen in a dry ice/isopropanol bath for 10 minutes. Lysates were stored at -70°C until the LTB4 content was measured by competitive LTB4 ELISA (R&D Systems).
# [4] = target: PDE7 purified from Hut78 human T cells (Homo sapiens, UniProt Q13946); experiment: PDE7 enzyme assay; type: biochemical
# Sequence of PDE7 purified from Hut78 human T cells (Q13946 whole entry): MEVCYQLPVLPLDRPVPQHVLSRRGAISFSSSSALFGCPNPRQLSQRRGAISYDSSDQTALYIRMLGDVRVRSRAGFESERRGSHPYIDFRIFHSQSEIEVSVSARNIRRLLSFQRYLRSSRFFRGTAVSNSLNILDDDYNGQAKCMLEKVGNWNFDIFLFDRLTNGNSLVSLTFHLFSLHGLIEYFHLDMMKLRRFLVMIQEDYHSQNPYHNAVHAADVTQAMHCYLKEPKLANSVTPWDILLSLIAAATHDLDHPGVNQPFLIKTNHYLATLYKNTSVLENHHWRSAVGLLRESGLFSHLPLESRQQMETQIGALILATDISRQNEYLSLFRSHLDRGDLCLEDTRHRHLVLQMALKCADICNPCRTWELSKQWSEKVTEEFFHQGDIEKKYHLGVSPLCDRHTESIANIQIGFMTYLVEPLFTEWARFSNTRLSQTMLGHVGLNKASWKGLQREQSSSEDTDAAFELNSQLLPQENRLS
# Description: PDE7 is a cAMP-selective PDE expressed mainly in T cells and in skeletal muscle. T cell-derived cytokines such as IL-2 and IFN-γ are potentially regulatable via PDE7 inhibition. […] Compounds were tested against the PDE7 preparation in the presence of 10 nM cAMP as described for PDE4 in Table 1.
# [5] = target: PDE3 from human platelets (Homo sapiens, UniProt Q14432); experiment: PDE3 enzyme assay; type: biochemical; details: for PDE Specificity Ratio PDE4/PDE3: from above data
# Sequence of PDE3 from human platelets (Q14432 whole entry): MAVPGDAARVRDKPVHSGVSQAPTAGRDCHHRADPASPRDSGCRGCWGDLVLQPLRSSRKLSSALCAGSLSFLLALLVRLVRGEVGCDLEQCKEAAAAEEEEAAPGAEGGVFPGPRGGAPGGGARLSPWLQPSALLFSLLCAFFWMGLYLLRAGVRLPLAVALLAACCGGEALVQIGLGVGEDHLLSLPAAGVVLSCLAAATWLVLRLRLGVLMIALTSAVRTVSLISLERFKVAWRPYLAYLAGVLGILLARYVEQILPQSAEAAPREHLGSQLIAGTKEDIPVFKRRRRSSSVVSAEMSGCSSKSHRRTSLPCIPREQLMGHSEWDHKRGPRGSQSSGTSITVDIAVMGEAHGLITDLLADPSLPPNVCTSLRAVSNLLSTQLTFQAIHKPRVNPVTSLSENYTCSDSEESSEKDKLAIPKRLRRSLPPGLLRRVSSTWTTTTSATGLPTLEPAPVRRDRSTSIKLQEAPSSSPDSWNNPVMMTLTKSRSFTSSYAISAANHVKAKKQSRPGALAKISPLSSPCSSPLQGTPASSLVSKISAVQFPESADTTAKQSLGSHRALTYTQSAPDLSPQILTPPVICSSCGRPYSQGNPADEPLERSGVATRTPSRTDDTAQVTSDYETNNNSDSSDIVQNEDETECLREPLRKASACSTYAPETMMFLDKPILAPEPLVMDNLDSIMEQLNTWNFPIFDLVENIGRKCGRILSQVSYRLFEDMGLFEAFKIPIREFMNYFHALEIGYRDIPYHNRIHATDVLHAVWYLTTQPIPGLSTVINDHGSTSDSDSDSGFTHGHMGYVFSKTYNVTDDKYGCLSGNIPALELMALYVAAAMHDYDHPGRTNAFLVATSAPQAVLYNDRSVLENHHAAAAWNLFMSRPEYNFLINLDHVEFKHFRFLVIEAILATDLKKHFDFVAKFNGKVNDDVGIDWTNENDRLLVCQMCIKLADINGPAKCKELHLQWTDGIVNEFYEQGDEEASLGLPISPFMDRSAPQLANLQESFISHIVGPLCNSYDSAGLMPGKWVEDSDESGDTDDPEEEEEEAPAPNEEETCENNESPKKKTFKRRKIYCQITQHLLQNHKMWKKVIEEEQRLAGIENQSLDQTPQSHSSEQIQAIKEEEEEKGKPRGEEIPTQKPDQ
# cAMP [6] = experiment: PGE2-induced cAMP elevation in human neutrophils; type: cell-based; details: Neutrophil
# Description: as §1
# Elevation of cAMP in human neutrophils was measured as follows. PBMC were removed from source leukocytes (Sera-Tec Biologicals) by centrifugation on Ficoll-Paque Plus (Amersham Pharmacia). […]
# [7] = target: T2, PDE6 from bovine retinal rod outer segments (Bos taurus, UniProt P11541+P23439); experiment: PDE6 enzyme assay; type: biochemical
# T2 construct: PDE6 from bovine retinal rod outer segments; from tissue; host or cells: bovine retinal rod outer segments
# T2 sequence (P11541 2-856 limits assumed): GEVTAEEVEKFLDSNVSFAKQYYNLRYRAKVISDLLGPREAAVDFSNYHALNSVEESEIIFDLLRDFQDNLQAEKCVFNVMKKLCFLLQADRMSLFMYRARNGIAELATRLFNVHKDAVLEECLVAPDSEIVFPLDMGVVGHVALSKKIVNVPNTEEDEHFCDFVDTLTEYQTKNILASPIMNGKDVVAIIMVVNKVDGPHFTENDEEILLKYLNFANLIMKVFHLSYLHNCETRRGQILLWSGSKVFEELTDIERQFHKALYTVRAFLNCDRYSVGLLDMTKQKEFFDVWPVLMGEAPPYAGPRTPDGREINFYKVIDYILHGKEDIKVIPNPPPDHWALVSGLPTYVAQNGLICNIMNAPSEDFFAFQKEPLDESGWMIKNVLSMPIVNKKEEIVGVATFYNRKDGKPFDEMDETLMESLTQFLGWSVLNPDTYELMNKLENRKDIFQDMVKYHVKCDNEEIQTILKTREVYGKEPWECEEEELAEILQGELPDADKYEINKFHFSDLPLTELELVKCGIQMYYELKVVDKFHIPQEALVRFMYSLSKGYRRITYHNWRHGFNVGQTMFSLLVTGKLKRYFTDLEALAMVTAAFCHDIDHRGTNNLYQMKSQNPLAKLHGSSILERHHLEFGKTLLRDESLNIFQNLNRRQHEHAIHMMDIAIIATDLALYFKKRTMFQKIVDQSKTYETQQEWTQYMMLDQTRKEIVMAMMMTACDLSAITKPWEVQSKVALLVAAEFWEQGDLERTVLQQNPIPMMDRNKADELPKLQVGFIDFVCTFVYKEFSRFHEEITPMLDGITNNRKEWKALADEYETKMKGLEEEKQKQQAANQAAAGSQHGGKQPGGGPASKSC
# T2 sequence (P23439 2-850 limits assumed): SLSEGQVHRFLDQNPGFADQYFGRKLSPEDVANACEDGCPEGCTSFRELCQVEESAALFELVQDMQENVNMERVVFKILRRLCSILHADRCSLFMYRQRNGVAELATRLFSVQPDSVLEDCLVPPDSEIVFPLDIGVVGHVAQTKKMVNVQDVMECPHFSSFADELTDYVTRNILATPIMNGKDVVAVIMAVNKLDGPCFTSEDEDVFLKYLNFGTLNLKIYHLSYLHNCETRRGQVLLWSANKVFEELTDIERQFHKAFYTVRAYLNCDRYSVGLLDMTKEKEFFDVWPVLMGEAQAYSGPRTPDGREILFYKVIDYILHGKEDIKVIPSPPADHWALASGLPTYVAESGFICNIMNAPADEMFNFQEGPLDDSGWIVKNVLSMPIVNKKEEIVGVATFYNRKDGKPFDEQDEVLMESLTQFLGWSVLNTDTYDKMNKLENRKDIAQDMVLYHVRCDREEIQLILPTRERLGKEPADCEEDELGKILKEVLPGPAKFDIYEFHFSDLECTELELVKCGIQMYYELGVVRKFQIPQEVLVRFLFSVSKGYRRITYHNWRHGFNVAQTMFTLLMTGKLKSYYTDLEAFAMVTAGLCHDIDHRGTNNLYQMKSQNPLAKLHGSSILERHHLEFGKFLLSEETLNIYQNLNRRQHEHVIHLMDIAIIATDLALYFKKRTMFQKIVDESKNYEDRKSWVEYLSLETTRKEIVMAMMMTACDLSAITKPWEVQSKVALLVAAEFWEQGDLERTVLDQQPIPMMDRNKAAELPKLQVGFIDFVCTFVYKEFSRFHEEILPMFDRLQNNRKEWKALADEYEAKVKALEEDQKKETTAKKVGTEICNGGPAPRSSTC
# Sequence of human PDE2 (O00408 whole entry): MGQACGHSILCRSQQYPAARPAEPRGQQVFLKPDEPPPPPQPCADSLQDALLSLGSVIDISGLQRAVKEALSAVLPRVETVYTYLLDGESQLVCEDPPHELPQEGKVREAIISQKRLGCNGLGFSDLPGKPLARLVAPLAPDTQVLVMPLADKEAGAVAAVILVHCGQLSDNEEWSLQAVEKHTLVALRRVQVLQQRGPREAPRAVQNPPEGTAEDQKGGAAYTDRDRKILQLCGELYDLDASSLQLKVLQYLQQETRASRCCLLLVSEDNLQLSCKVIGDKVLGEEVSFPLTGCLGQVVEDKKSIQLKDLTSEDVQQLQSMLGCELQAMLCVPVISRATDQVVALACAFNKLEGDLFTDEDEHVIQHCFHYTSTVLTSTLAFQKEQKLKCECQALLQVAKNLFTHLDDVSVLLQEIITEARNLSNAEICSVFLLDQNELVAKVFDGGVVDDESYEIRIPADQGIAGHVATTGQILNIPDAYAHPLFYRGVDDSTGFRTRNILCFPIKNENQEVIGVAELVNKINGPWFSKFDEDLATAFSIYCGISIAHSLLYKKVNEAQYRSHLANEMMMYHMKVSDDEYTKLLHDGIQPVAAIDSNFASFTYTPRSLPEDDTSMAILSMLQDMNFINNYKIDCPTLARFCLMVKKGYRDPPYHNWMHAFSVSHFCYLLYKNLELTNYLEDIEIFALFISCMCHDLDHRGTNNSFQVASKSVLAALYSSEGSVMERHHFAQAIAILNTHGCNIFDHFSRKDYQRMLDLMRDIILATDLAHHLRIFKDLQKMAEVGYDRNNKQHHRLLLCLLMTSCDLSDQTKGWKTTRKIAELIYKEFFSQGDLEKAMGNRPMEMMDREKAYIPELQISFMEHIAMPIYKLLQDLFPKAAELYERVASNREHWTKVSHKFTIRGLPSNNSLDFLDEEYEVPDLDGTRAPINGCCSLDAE
SMILES,PDE Specificity Ratio PDE4/PDE2 (human PDE2) [fold],inhibition at 10 µM (human PDE2; read-out: PDE2(% inhib at 10 µM)) [%],IC50 (PDE4 (from U937 cells)) [nM],solubility [1] [µg/mL],EC50 (cAMP [2]) [nM],PDE1 (% inhib at 10 µM) (bovine PDE1) [%],PDE Specificity Ratio PDE4/PDE1 (bovine PDE1) [fold],PDE Specificity Ratio PDE4/PDE5 [3] [fold],inhibition at 10 µM ([3]; read-out: PDE5 (% inhib at 10 µM)) [%],IC50 (LTB4) [nM],IC50 ([4]; 10 nM cAMP) [nM],PDE Specificity Ratio PDE7 IC50/PDE4 IC50 ([4]; from above data) [fold],PDE Specificity Ratio PDE4/PDE3 [5] [fold],inhibition at 10 µM ([5]; read-out: PDE3 (% inhib at 10 µM)) [%],EC50 (cAMP [6]) [nM],PDE2(% inhib at 10 µM) (human PDE2; 10 µM) [%],PDE6 (% inhib at 10 µM) ([7]; 10 µM) [%],PDE Specificity Ratio PDE4/PDE6 ([7]; from above data) [fold],PDE5 (% inhib at 10 µM) ([3]; 10 µM) [%],PDE3 (% inhib at 10 µM) ([5]; 10 µM) [%]
"CCOc1cc(C(CS(C)(=O)=O)N2C(=O)c3cccc(NC(C)=O)c3C2=O)ccc1OC (racemic) [Racemic Compound, 2-[1-(3-Ethoxy-4-methoxyphenyl)-2-methylsulfonylethyl]-4-acetylaminoisoindoline-1,3-dione]",>800,19,81.8,3.4,3090,9,>2700,>12000,3,20.1,22100,270,>670,21,12600,–,–,–,–,–
CCOc1cc([C@H](CS(C)(=O)=O)N2C(=O)c3cccc(NC(C)=O)c3C2=O)ccc1OC [Compound B],>260,–,611,–,–,27,>50,>39000,–,–,–,–,>45,–,–,10,10,>250,-9,31
